Measurements taken from patent US9238631B2, “Radiolabeled amino acids for diagnostic imaging” (PIRAMAL IMAGING SA, priority 2011, dated 2016).

What was measured:
NCI-H460 tumor [1] = assay: In vivo biodistribution in NCI-H460 tumor bearing mice; conditions: for T/Blood / T/Muscle: 1 h post injection
Method: (§1) To test the pharmacokinetic properties of compounds from the present invention, all F18-labeled compounds were examined by biodistribution studies in NCI-H460 tumor bearing mice. Female NMRI (nu/nu) mice were inoculated with 5×10^6 NCI-H460 tumor cells 8 to 10 days before the biodistribution studies. 185 kBq of activity of the fluorinated compound was injected and at least n=3 mice were used for every time point. After injection of the F18-labeled compound, mice were sacrificed at defined time-points. All organs were removed and radioactivity was determined using a γ-counter.
To compare the tumor uptake and retention of radioactivity of different ^18F-labeled derivatives from the present invention, biodistribution studies were performed in NCI-H460 tumor bearing NMRI (nu/nu) mice as described above.
To compare the kidney clearance of several ^18F-labeled derivatives from the present invention, biodistribution studies were performed in NCI-H460 tumor bearing female NMRI (nu/nu) mice as described above. […] After 2 h p.i., less than 1% ID/g can be found in the kidneys.
For comparison of pancreas uptake and clearance of several ^18F-labeled derivatives from the present invention, biodistribution studies were performed in NCI-H460 tumor bearing NMRI (nu/nu) mice as described above. […] After 2 h p.i., less than 2% ID/g can be found in the pancreas.
as §1, with “and” for “for every time point. After injection of the F18-labeled compound, mice were”, “time-points raning from 15 min pi up to 2 h p.i.” for “time-points.”, “γ-counter. […] High tumor uptake values of >3% ID/g were obtained with various compounds from the present invention.” for “γ-counter.”

NCI-H460 tumor [2] = assay: PET imaging in NCI-H460 tumor bearing nude-rats; assay type: in vivo; conditions: PET ROI analysis, 1 h p.i.
Method: c) Beside PET-imaging studies in mice, also the imaging properties of [^18F]-12 in rats were examined. NCI-H460 tumor cells were inoculated into the right flank of nude-rats (RH-Foxn1 nu/nu) 8 to 10 days before the PET study. PET images were acquired at 60 min after injection of approximately 10 MBq for 10 minutes. The H460 tumor was nicely visible (0.9% ID/g as determined by ROI analysis). Beside some minor uptake into the liver and kidneys due to the excretion of the compound, no uptake into other non-target tissues was observed.
To test the imaging properties, compounds from the present invention were evaluated in PET imaging studies using tumor bearing rats. NCI-H460 tumor cells were inoculated into the right flank of nude-rats (RH-Foxn1 nu/nu) 8 to 10 days before the PET study. PET images were acquired at 60 min after injection of approximately 10 MBq for 10 minutes. After the imaging study, region-of-interest (ROI) analysis was performed and activity in tumor, liver and kidney was determined. […] High tumor uptake values of >1% […] in this rat model were obtained with various compounds from the present invention. A favorable clearance profile of all compounds enables excellent tumor detection in PET imaging studies in tumor bearing rats.

Row | Compound | Kidney (% ID/g at 1 h p.i.) (NCI-H460 tumor [1]) [% ID/g] | Liver (% ID/g at 1 h p.i.) (NCI-H460 tumor [1]) [% ID/g] | Pancreas (% ID/g at 1 h p.i.) (NCI-H460 tumor [1]) [% ID/g] | Tumor (% ID/g at 1 h p.i.) (NCI-H460 tumor [1]) [% ID/g] | Urine (% ID at 1 h p.i.) (NCI-H460 tumor [1]) [% ID] | T/Blood (NCI-H460 tumor [1]) | T/Muscle (NCI-H460 tumor [1]) | Kidney (% ID/g at 1 h p.i.) (NCI-H460 tumor [2]) [% ID/g] | Liver (% ID/g at 1 h p.i.) (NCI-H460 tumor [2]) [% ID/g] | Tumor (Max % ID/g at 1 h p.i.) (NCI-H460 tumor [2]) [% ID/g] | Tumor (Mean % ID/g at 1 h p.i.) (NCI-H460 tumor [2]) [% ID/g] | tumor uptake and retention (summary statement) (NCI-H460 tumor [1]; mouse, in vivo)
1 | N[C@@H](CCC(Cc1ccc(OC[18F])cc1)C(=O)O)C(=O)O (single isomer, unassigned) [[^18F]-41 C5-1] | 3.5 ± 0.7 | 0.3 ± 0.1 | 2.2 ± 0.3 | 6.4 ± 1.4 | 85.0 ± 7.7 | 23.4 | 94.2 | 0.5 | 0.4 | 3.2 | 1.2 | –
2 | N[C@@H](CCC(Cc1ccc(OC[18F])cc1)C(=O)O)C(=O)O (single isomer, unassigned) [[^18F]-41 C5-2] | 2.4 ± 0.8 | 0.3 ± 0.1 | 1.1 ± 0.2 | 8.7 ± 1.9 | 83.5 ± 5.1 | 36.0 | 107.3 | 0.2 | 0.2 | 4.4 | 2.0 | –
3 | N[C@@H](CCC(Cc1ccc(OCC[18F])cc1)C(=O)O)C(=O)O (stereo partly drawn) [[^18F]-12 C5-1] [(2S)-2-amino-5-[4-([^18F]fluoroethoxy)benzyl]hexanedioic acid] | – | – | – | – | – | – | – | 0.8 | 1.2 | 3.4 | 1.3 | –
4 | N[C@@H](CCC(Cc1ccc(OCC[18F])cc1)C(=O)O)C(=O)O (stereo partly drawn) [[^18F]-12 C5-2] [(2S)-2-amino-5-[4-(fluoroethoxy)benzyl]hexanedioic acid] | – | – | – | – | – | – | – | 0.4 | 0.5 | 3.7 | 1.6 | –
5 | N[C@@H](CC(Cc1ccc(OCC[18F])cn1)C(=O)O)C(=O)O (some centres unmarked) [[^18F]-17] | – | – | – | – | – | – | – | 2.4 | 0.9 | 2.6 | 1.2 | –
6 | N[C@@H](CCC(Cc1ccc(OCC[18F])cn1)C(=O)O)C(=O)O (stereo partly drawn) [[^18F]-32, (2S)-2-Amino-5-{[5-(2-[^18F]fluoroethoxy)pyridin-2-yl]methyl}hexanedioic acid] | 3.9 ± 1.0 | 2.3 ± 0.2 | 0.7 ± 0.1 | 2.3 ± 0.9 | 81.0 ± 7.5 | 17.9 | 23.5 | – | – | – | – | –
7 | N[C@@H](CC(Cc1ccc(OCC[18F])c[n+]1[O-])C(=O)O)C(=O)O (stereo partly drawn) [[^18F]-35, 4-{[5-(2-[^18F]fluoroethoxy)-1-oxidopyridin-2-yl]methyl}-L-glutamic acid] | – | – | – | – | – | – | – | 3.1 | 0.2 | 0.5 | 0.2 | –
8 | N[C@@H](CC(Cc1ccc(OCC[18F])c(O)c1)C(=O)O)C(=O)O (stereo partly drawn) [[^18F]-44, 4-[4-(2-[^18F]fluoroethoxy)-3-hydroxybenzyl]-L-glutamic acid] | 2.5 ± 0.7 | 0.95 ± 0.1 | 1.2 ± 0.1 | 3.3 ± 1.2 | 80.6 ± 10.1 | 28.2 | 71.1 | – | – | – | – | –
9 | N[C@@H](C[C@@H](Cc1ccc(OC[18F])cc1)C(=O)O)C(=O)O [[^18F]-50, (4R)-4-{4-[(^18F)fluoromethoxy]benzyl}-L-glutamic acid] | – | – | – | – | – | – | – | 1.0 | 0.2 | 2.4 | 1.1 | –
10 | N[C@@H](CCC(Cc1ccc(NCC[18F])cc1)C(=O)O)C(=O)O (stereo partly drawn) [[^18F]-52, (2S)-2-amino-5-(4-{[2-(^18F)fluoroethyl]amino}benzyl)hexanedioic acid] | 3.5 ± 1.1 | 2.6 ± 0.4 | 7.5 ± 1.1 | 8.2 ± 2.1 | 66.8 ± 10.3 | 32.5 | 95.4 | – | – | – | – | high tumor uptake and retention
11 | N[C@@H](CC(Cc1ccc(OCC[18F])nc1)C(=O)O)C(=O)O (stereo partly drawn) [[^18F]-56, 4-({6-[2-(^18F)fluoroethoxy]pyridin-3-yl}methyl)-L-glutamic acid] | 5.2 ± 1.1 | 0.7 ± 0.2 | 0.2 ± 0.03 | 1.0 ± 0.1 | 77 ± 6.7 | 9.9 | 25 | – | – | – | – | –
12 | N[C@@H](CC(Cc1ccc(OC[C@H](O)[C@@H](O)C[18F])cc1)C(=O)O)C(=O)O (stereo partly drawn) [[^18F]-58, 4-(4-{[(2S,3R)-4-(^18F)fluoro-2,3-dihydroxybutyl]oxy}benzyl)-L-glutamic acid] | – | – | – | – | – | – | – | 4.6 | 1.7 | 0.63 | 0.3 | –
13 | N[C@@H](CC(Cc1ccc(OC(CO)C[18F])cc1)C(=O)O)C(=O)O (stereo partly drawn) [[^18F]-60, 4-(4-{[1-(^18F)fluoro-3-hydroxypropan-2-yl]oxy}benzyl)-L-glutamic acid] | – | – | – | – | – | – | – | 2.2 | 0.9 | 2.2 | 1.0 | –
14 | N[C@@H](CC(Cc1ccc(C[18F])cc1)C(=O)O)C(=O)O (stereo partly drawn) [[^18F]-66, 4-{4-[(^18F)fluoromethyl]benzyl}-L-glutamic acid] | – | – | – | – | – | – | – | 2.9 | 1.7 | 1.3 | 0.7 | –
